What was measured:
[1] = test system: SKNBE2c; test: Cellular proliferation assay (ATP-Lite), SKNBE2c cells; format: cell-based, human; settings: Table 6
Experimental: For the purpose of assessing the gene modulation ability of the oligonucleotides of the present invention, the effect of their administration on cell viability was determined. For this purpose 5×10^3 cells per well were seeded into 96-well cell culture plates (experiments conducted in triplicate) with 100 μl of OPTI-MEM (GIBCO BRL) medium containing 4% FBS and 2 mM of L-glutammine. The PNA oligonucleotides were administered at different concentrations (1 μM-2.5 μM-5 μM-10 μM) in order to observe a dose-effect relationship. The viability of the treated cells was determined at 48, 72, 96 and 168 hours after treatment. Cell viability was assessed by means of an ATP-Lite assay (Luminescence ATP Detection Assay System, PerkinElmer) and is reported as the ratio between the average signal of the treated wells compared to the average value of the wells of untreated control cells. The cells were processed following the instructions provided with the kit. The assays were performed on the same cell lines used to determine the levels of the MYCN gene messenger and listed in the paragraph: Treatments with Oligonucleotides-QT-PCR. The PNAs having SEQ ID NO: 1-12 were also tested on different cell lines which overexpress MYCN (Kelly, SKNBE2c, RH30, […] 1 and H69). The results are shown in Table 6 and confirm the selectivity and specificity of the inhibition effect of the PNAs on the product of protein translation of the MYCN gene.

[2] = test system: MYCN gene; test: QT-PCR, MYCN mRNA in WiT49 cells; format: cell-based, human; settings: Table 6
Experimental: For the purpose of assessing the ability of the oligonucleotides of the present invention to modulate the expression of the target genes, their ability to reduce the quantity of messenger RNA was analyzed using the Real-Time PCR technique. For this purpose, use was made of 24-well plates, which were seeded with 5.0×10^4 cells with 0.3 ml of OPTI-MEM (GIBCO BRL) medium, 4% FBS and 2 mM L-glutammine (experiments in triplicate) per well. The cells were incubated for 24 hours at 37° C., in an atmosphere containing 5% CO2 to permit adherence to the base of the wells. For each well, the oligonucleotides were analyzed at the following final concentrations: • the antisense oligonucleotides siRNA and siRNA gapmer (i.e. the oligonucleotides containing one or more monomers of chemically modified nucleic acids at the 3' or 5' end, while in the central portion they have monomers of nucleic acids that have not been modified or have been modified at the level of the phosphodiester bond as a phosphorothioate bond) were used at 200 nM; • the antisense oligonucleotides containing phosphorothioate DNA monomers, the RNA antigene oligonucleotides (agRNA) and the oligonucleotides containing DNA monomers and LNA monomers were used at 10 μM; • the morpholino oligonucleotides were used at a concentration of 1 μM, and • the PNA oligonucleotides were administered at a concentration of 1 μM. The cells were treated with the oligonucleotides, adding FBS up to 4% 6 hours after administration of the same. After 24 hours the total RNA was extracted from each well and purified using the RNeasy Mini Kit (QIAGEN). Assays were performed on 8 cell lines obtained from 5 different human tumours which are correlated with MYCN expression, i.e.: • as a neuroblastoma model use was made of the cell lines Kelly, IMR-32 (where the MYCN gene is amplified and superexpressed) and SKNBE2c and LAN1 (where the MYCN gene is amplified and superexpressed and the p53 gene is mutated); • as a rabdomiosarcoma model use was made of the cell line RH30, where the MYCN gene is amplified and superexpressed; • as a Wilms' tumour model use was made of the cell line WiT49, where the MYCN gene is amplified and superexpressed; • as a retinoblastoma model use was made of the cell line Y79, where the MYCN gene is amplified and superexpressed; and • as a model of small cell lung cancer use was made of the cell line H69 where the MYCN gene is amplified and superexpressed. As a control, use was made of the same cell lines as listed above treated with sterile water instead of oligonucleotides. Each RNA sample was quantified (in duplicate) using a NanoDrop ND-1000 spectrophotometer (NanoDrop Technologies). The first strand of cDNA was produced using the cDNA Synthesis Kit for RT-PCR (Roche). For the cDNA synthesis reaction a total of 1 μg of RNA was used. For the real-time PCR, 10 ng of cDNA in a final volume of 20 μl was used with SYBR Green Master Mix 2× (Applied Biosystems) (3 identical experiments were conducted in triplicate). Two housekeeping genes were used as positive controls: GAPDH and beta-actin (ACTB). The conditions of the QT-PCR reaction were: 10 min at 95° C., 20 sec at 95° C., and 30 sec at 60° C., for 50 cycles. The PNAs having SEQ ID NO: 1-12 were also tested on different cell lines which overexpress MYCN (Kelly, SKNBE2c, RH30, […] 1 and H69). The results are shown in Table 6 and confirm the selectivity and specificity of the inhibition effect of the PNAs on the product of protein translation of the MYCN gene.

Row | Substance | SKNBE2c % cell prol. [1] [%] | WiT49 % mRNA [2] [%]
1 | SEQ ID NO: 1: PNA ATGCCGGGCATGATCT against MYCN; subject of patent EP 1618195, control sequence used for comparison (all peptide nucleic acid (PNA)) [reference compound] | 72 | 62
2 | SEQ ID NO: 2: PNA antigene oligonucleotide GGGTGGATGCGGGGGG directed against MYCN (PNA backbone, chemistry not fully specified) | 52 | 78
3 | SEQ ID NO: 3: PNA antigene oligonucleotide GATGCGGGGGGCTCCT directed against MYCN (PNA backbone, chemistry not fully specified) | 53 | 75
4 | SEQ ID NO: 4: PNA antigene oligonucleotide GTCGGCGGGAGGTAAG directed against MYCN (PNA backbone, chemistry not fully specified) | 59 | 73
5 | SEQ ID NO: 5: PNA antigene oligonucleotide GCTGGGTGGATGCGGG directed against MYCN (PNA backbone, chemistry not fully specified) | 64 | 69
6 | SEQ ID NO: 6: PNA antigene oligonucleotide TGGACGCGCTGGGTGG directed against MYCN (PNA backbone, chemistry not fully specified) | 57 | 68
7 | SEQ ID NO: 7: PNA antigene oligonucleotide CGCGCTGGGTGGATGC directed against MYCN (all peptide nucleic acid (PNA)) | 58 | 70
8 | SEQ ID NO: 8: PNA antigene oligonucleotide GTCTGGACGCGCTGGG directed against MYCN (all peptide nucleic acid (PNA)) | 56 | 72
9 | SEQ ID NO: 9: PNA antigene oligonucleotide CCCTGCAGTCGGCGGG directed against MYCN (all peptide nucleic acid (PNA)) | 64 | 66
10 | SEQ ID NO: 10: PNA antigene oligonucleotide CGGCCGCGGGCCGCCA directed against MYCN (PNA backbone, chemistry not fully specified) | 70 | 60
11 | SEQ ID NO: 11: PNA antigene oligonucleotide GGGAACTGTGTTGGAG directed against MYCN (PNA backbone, chemistry not fully specified) | 71 | 60
12 | SEQ ID NO: 12: PNA antigene oligonucleotide TGTCTGGACGCGCTGG directed against MYCN (all peptide nucleic acid (PNA)) | 71 | 62

From patent publication US10752900B2, “Oligonucleotides for modulating gene expression and uses thereof” (BIOGENERA S.P.A., priority 2012, dated 2020)
